Results reported in ChEMBL document CHEMBL4616595, “Targeted suppression of metastasis regulatory transcription factor SOX2 in various cancer cell lines using a sequence-specific designer pyrrole-imidazole polyamide” (Bioorg Med Chem, 2020).
Calls of active or inactive are those of the source. The calls are words filed in the database; no cut-off is given here.

Experiments:
SOX2 promoter DNA [1] = experiment: Binding affinity to SOX2 promoter 5'-CTTTGTT-3' DNA in human SW620 cells assessed as down regulation of stemness associated KLF4 mRNA expression at 2 uM incubated for 48 hrs by qRT-PCR analysis; type: cell-based; details: SW-620
SOX2 promoter DNA [2] = experiment: Binding affinity to SOX2 promoter 5'-CTTTGTT-3' DNA in human SW620 cells assessed as downregulation S100A4 mRNA expression incubated for 48 hrs by qRT-PCR analysis; type: cell-based; details: SW-620
SOX2 promoter DNA [3] = experiment: Binding affinity to SOX2 promoter 5'-CTTTGTT-3' DNA in human SW620 cells assessed as reduction in SOX2 protein level incubated for 48 hrs by immunostaining based FACS analysis; type: cell-based; details: SW-620
SOX2 promoter DNA [4] = experiment: Binding affinity to SOX2 promoter 5'-CTTTGTT-3' DNA in human SW620 cells assessed as down regulation of PROM1 gene expression at 2 uM incubated for 48 hrs by Cy3-labelled cRNA-based microarray analysis; type: cell-based; details: SW-620
SOX2 promoter DNA [5] = experiment: Binding affinity to SOX2 promoter 5'-CTTTGTT-3' DNA in human SW620 cells assessed as down regulation of GLI3 gene expression at 2 uM incubated for 48 hrs by Cy3-labelled cRNA-based microarray analysis; type: cell-based; details: SW-620
MKN-45 = experiment: Cell cycle arrest in human MKN45 cells assessed as increase in accumulation at sub-G1/G1 phase at 2 uM to 5 uM after 48 hrs by propidium iodide staining based flow cytometry analysis; type: functional
NHDF = experiment: Cytotoxicity against HDF cells assessed as effect on cell viability measured after 48 hrs by MTT assay; type: cell-based; details: human
SOX2 promoter DNA [6] = experiment: Binding affinity to SOX2 promoter 5'-CTTTGTT-3' DNA in human DU145 cells assessed as reduction in SOX2 mRNA expression incubated for 48 hrs by qRT-PCR analysis; type: cell-based; details: DU-145
U2OS [7] = experiment: Cell cycle arrest in human U2OS cells assessed as reduction in accumulation at S phase at 2 uM to 5 uM after 48 hrs by propidium iodide staining based flow cytometry analysis; type: functional
U2OS [8] = experiment: Antiproliferative activity against human U2OS cells assessed as inhibition of cell proliferation incubated for 48 hrs by [3H]thymidine incorporation based scintillation counting method; type: functional
SOX2 promoter DNA [9] = experiment: Binding affinity to SOX2 promoter 5'-CTTTGTT-3' DNA in mouse GL261 cells assessed as reduction in SOX2 mRNA expression incubated for 48 hrs by qRT-PCR analysis; type: cell-based
U2OS [10] = experiment: Cell cycle arrest in human U2OS cells assessed as reduction in accumulation at G2/M phase at 2 uM to 5 uM after 48 hrs by propidium iodide staining based flow cytometry analysis; type: functional
MCF7 [11] = experiment: Antiproliferative activity against human MCF7 cells assessed as inhibition of cell proliferation incubated for 48 hrs by [3H]thymidine incorporation based scintillation counting method; type: functional
MCF7 [12] = experiment: Cell cycle arrest in human MCF7 cells assessed as reduction in accumulation at S phase at 2 uM to 5 uM after 48 hrs by propidium iodide staining based flow cytometry analysis; type: functional
SOX2 promoter DNA [13] = experiment: Binding affinity to SOX2 promoter 5'-CTTTGTT-3' DNA in mouse Wehi3 cells assessed as reduction in SOX2 mRNA expression incubated for 48 hrs by qRT-PCR analysis; type: cell-based
SOX2 promoter DNA [14] = experiment: Binding affinity to SOX2 promoter 5'-CTTTGTT-3' DNA in human SW620 cells assessed as down regulation of JAG1 gene expression at 2 uM incubated for 48 hrs by Cy3-labelled cRNA-based microarray analysis; type: cell-based; details: SW-620
MCF7 [15] = experiment: Cytotoxicity against human MCF7 cells assessed as reduction in cell viability incubated for 48 hrs by MTT assay; type: functional, cell-based
B16-F10 = experiment: Anti-metastasis activity in mouse B16/F10 cells implanted in C57BL/6N mouse assessed as reduction in lung metastatic nodules at 1 mg/kg ip dosed every third day and measured on day 21 relative to untreated control; type: functional
SOX2 promoter DNA [16] = experiment: Binding affinity to SOX2 promoter 5'-CTTTGTT-3' DNA in human SW620 cells assessed as downregulation of SNAIL2 mRNA expression at 2 uM incubated for 48 hrs by qRT-PCR analysis; type: cell-based; details: SW-620
SOX2 promoter DNA [17] = experiment: Binding affinity to SOX2 promoter 5'-CTTTGTT-3' DNA in human MKN45 cells assessed as reduction in SOX2 mRNA expression incubated for 48 hrs by qRT-PCR analysis; type: cell-based; details: MKN-45
SOX2 promoter DNA [18] = experiment: Binding affinity to SOX2 promoter 5'-CTTTGTT-3' DNA in human SW620 cells assessed as up regulation of CDH1 mRNA expression at 2 uM incubated for 48 hrs by qRT-PCR analysis; type: cell-based; details: SW-620
SOX2 promoter DNA [19] = experiment: Binding affinity to SOX2 promoter 5'-CTTTGTT-3' DNA in human SW620 cells assessed as down regulation of stemness associated BMP-4 mRNA expression at 2 uM incubated for 48 hrs by qRT-PCR analysis; type: cell-based; details: SW-620
SW-620 [20] = experiment: Up regulation of FASL mRNA expression in human SW620 cells incubated for 48 hrs by qRT-PCR analysis; type: functional, cell-based
SOX2 promoter DNA [21] = experiment: Binding affinity to SOX2 promoter 5'-CTTTGTT-3' DNA in human SW620 cells assessed as upregulation of APC mRNA expression incubated for 48 hrs by qRT-PCR analysis; type: cell-based; details: SW-620
SOX2 promoter DNA [22] = experiment: Binding affinity to SOX2 promoter 5'-CTTTGTT-3' DNA in mouse Hepa1 cells assessed as reduction in SOX2 mRNA expression incubated for 48 hrs by qRT-PCR analysis; type: cell-based
U2OS [23] = experiment: Cytotoxicity against human U2OS cells assessed as reduction in cell viability incubated for 48 hrs by MTT assay; type: functional, cell-based
SW-620 [24] = experiment: Antimigratory activity in human SW620 cells assessed as reduction in cell migration at 5 uM incubated for 24 hrs by Calcein AM staining based fluorescence microscopic analysis relative to untreated control; type: functional
SOX2 promoter DNA [25] = experiment: Binding affinity to SOX2 promoter 5'-CTTTGTT-3' DNA in mouse EG7 cells assessed as reduction in SOX2 mRNA expression incubated for 48 hrs by qRT-PCR analysis; type: cell-based
SOX2 promoter DNA [26] = experiment: Binding affinity to SOX2 promoter 5'-CTTTGTT-3' DNA in human PC3 cells assessed as reduction in SOX2 mRNA expression incubated for 48 hrs by qRT-PCR analysis; type: cell-based; details: PC-3
SOX2 promoter DNA [27] = experiment: Binding affinity to SOX2 promoter 5'-CTTTGTT-3' DNA in mouse B16 cells assessed as reduction in SOX2 mRNA expression incubated for 48 hrs by qRT-PCR analysis; type: cell-based
SOX2 promoter DNA [28] = experiment: Binding affinity to SOX2 promoter 5'-CTTTGTT-3' DNA in human SW620 cells assessed as down regulation of GRB2 mRNA expression incubated for 48 hrs by qRT-PCR analysis; type: cell-based; details: SW-620
SOX2 promoter DNA [29] = experiment: Binding affinity to SOX2 promoter 5'-CTTTGTT-3' DNA in human SW620 cells assessed as down regulation of Cyclin D1 mRNA expression at 2 uM incubated for 48 hrs by qRT-PCR analysis; type: cell-based; details: SW-620
SOX2 promoter DNA [30] = experiment: Binding affinity to SOX2 promoter 5'-CTTTGTT-3' DNA in human SW620 cells assessed as reduction in SOX2 protein level by measuring SOX2 level at 5 uM incubated for 48 hrs by immunostaining based FACS analysis (reference value: 55.9%); type: cell-based; design: scale not given: the % may be the effect or the level left; details: SW-620

## CC(=O)Nc1cc(C(=O)Nc2cc(C(=O)Nc3cc(C(=O)NCCC(=O)Nc4cn(C)c(C(=O)Nc5cc(C(=O)NCCCC(=O)Nc6cc(C(=O)Nc7cc(C(=O)NCCC(=O)Nc8cc(C(=O)Nc9cc(C(=O)Nc%10cn(C)c(C(=O)NCCCN(C)C)n%10)n(C)c9)n(C)c8)n(C)c7)n(C)c6)n(C)c5)n4)n(C)c3)n(C)c2)n(C)c1
SOX2 promoter DNA [1]
  Activity: Active
SOX2 promoter DNA [2]
  Activity: Active
SOX2 promoter DNA [3]
  Activity: Dose-dependent effect
SOX2 promoter DNA [4]
  Activity: Active
SOX2 promoter DNA [5]
  Activity: Active
MKN-45
  Activity: Active
NHDF
  Activity: Non-Toxic
SOX2 promoter DNA [6]
  Activity: Active
U2OS [7]
  Activity: Active
U2OS [8]
  inhibition: Dose-dependent effect
SOX2 promoter DNA [9]
  Activity: Active
U2OS [10]
  Activity: Active
MCF7 [11]
  inhibition: Dose-dependent effect
MCF7 [12]
  Activity: Active
SOX2 promoter DNA [13]
  Activity: Active
SOX2 promoter DNA [14]
  Activity: Active
MCF7 [15]
  Activity: Dose-dependent effect
B16-F10
  fold change (FC): 4
SOX2 promoter DNA [16]
  Activity: Active
SOX2 promoter DNA [17]
  Activity: Active
SOX2 promoter DNA [18]
  Activity: Active
SOX2 promoter DNA [19]
  Activity: Active
SW-620 [20]
  Activity: Active
SOX2 promoter DNA [21]
  Activity: Active
SOX2 promoter DNA [22]
  Activity: Active
U2OS [23]
  Activity: Dose-dependent effect
SW-620 [24]
  fold change (FC): 5
SOX2 promoter DNA [25]
  Activity: Active
SOX2 promoter DNA [26]
  Activity: Active
SOX2 promoter DNA [27]
  Activity: Active
SOX2 promoter DNA [28]
  Activity: Active
SOX2 promoter DNA [29]
  Activity: Active
SOX2 promoter DNA [30]
  Activity: 28.1%
